Consider 4 molecules from patent publication US12702677B2 (priority 2008, dated 2026).

For one series, the system named is A or B influenza virus. Particulars: started during the first 48 hours after onset of symptoms; cited from earlier work.
Series [1] relates to matrix metalloproteinase 9 (MMP-9) expression. The series can be described thus: Quantikine Human MMP-9 (total) immunoassay, MMP-9 expression in influenza-A-infected Vero cells. It counts as cell-based, African Green Monkey. Particulars: influenza A-infected Vero cell supernatants, FIGS. 5 and 6. Here is the method:
A Quantikine Human MMP-9 (total) Immunoassay Assay, R&D Systems, was used to quantify expression of MMP-9 in infected cells according to the manufacturer's protocol, which is incorporated herein by reference.
Vero cells were plated at 1e^5 cells/mL in a 100 uL volume in tissue culture treated 96 well plates. The following day cells were infected with virus at a multiplicity of infection of 10 and viral activity was measured. For testing compounds, cells were preincubated with compound 1 hr prior to infection. After overnight incubation, the cells were harvested, lysed, and supernatants were subjected to assay.
This MMP-9 assay employs the quantitative sandwich enzyme immunoassay technique. A monoclonal antibody specific for MMP-9 has been pre-coated onto a microplate. Standards and samples are pipetted into the wells, and MMP-9 is bound by the immobilized antibody. After washing away unbound substances, an enzyme-linked polyclonal antibody specific for MMP-9 is added to the wells. Following a wash to remove unbound antibody-enzyme reagent, a substrate solution is added to the wells and color develops in proportion to the amount of total MMP-9 (pro and/or active) bound in the initial step. The color development is stopped and the intensity of the color is measured.
Test formulations are shown in Example 5, Table 1. […]

The conditions of series [2]: adults; cited from earlier work.
The conditions of series [3]: animal studies, substantially high doses; cited from earlier work.

The structures appear in SMILES notation.

As for `CCOC(=O)C1=C[C@@H](OC(CC)CC)[C@H](NC(C)=O)[C@@H](N)C1` [Formula T, oseltamivir phosphate], the “reduction of the duration of a typical seven day illness” value with A or B influenza virus is “about one”. Besides, the “inhibition of expression of MMP-9” value was “pronounced dose-dependent inhibition of expression of MMP-9” in series [1] and “inhibits expression of MMP-9” in series [1] (listed as Tamiflu®).
As for `CC(=O)N[C@H]1[C@H]([C@H](O)[C@H](O)CO)OC(C(=O)O)=C[C@@H]1N=C(N)N` [Relenza®, zanamivir], the “reduction of the duration of a typical seven day illness” value in the series on A or B influenza virus is listed as “about one”.
Take `Cc1ncc(CO)c(CO)c1O` [Vitamin B6, Pyridoxine]: the safe intake result in series [2] is recorded as “up to 200 mg per day”.
Take `CC(N)C12CC3CC(CC(C3)C1)C2` (stereo not drawn) [rimantadine]: in series [3], the teratogenicity and embryotoxicity result is “teratogenic and embryotoxic”.
